This assay addresses T1, hβ1AR (human β1-adrenergic receptor), WT S49 R389 (Homo sapiens, UniProt P08588).
T1 construct: gene ADRB1; full-length WT (S49, R389) with HA signal peptide, N-terminal MYC tag and C-terminal FLAG tag (pFT-SMMF); N-terminal part partly cleaved at R31/L32 in cells
In words: radioligand saturation binding, membranes of stable HEK293i cells.

The results in this text go back to paper PMC11880984, “Altered O‐glycosylation of β1‐adrenergic receptor N‐terminal single‐nucleotide variants modulates receptor processing and functional activity” (The Febs Journal, 2024).

As a reminder, the Kd is a measure of binding affinity in units of concentration.

T1 sequence (P08588 whole entry G389R): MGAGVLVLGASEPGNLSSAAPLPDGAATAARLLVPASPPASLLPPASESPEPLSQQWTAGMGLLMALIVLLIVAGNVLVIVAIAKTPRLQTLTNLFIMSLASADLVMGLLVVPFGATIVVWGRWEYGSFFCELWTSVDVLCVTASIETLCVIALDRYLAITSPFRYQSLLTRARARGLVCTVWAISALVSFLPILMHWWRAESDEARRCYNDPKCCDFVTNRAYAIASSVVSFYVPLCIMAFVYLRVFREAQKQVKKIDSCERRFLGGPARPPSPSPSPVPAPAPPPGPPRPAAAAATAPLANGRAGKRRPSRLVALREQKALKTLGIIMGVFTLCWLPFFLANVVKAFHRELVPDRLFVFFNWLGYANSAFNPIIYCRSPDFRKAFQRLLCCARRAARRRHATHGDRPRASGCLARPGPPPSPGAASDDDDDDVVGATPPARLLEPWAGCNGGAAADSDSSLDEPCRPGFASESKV

Molecule `CCCc1ccccc1OCC(O)CNC(C)C` (stereo not shown) [[^3H]dihydroalprenolol] showed a Kd of 0.42 ± 0.04 nM.
